We go through six compounds from patent publication US20190076417A1, “COMPOSITIONS AND METHODS FOR TREATING OR PREVENTING ATRIAL FIBRILLATION” (Northwestern University, priority 2010, published 2019).

In test [1] the test system is M2 versus M3 muscarinic receptor subtype. To be noted: cited from earlier work.
Test [2] concerns M2 versus M1 muscarinic receptor subtype. To be noted: cited from earlier work.
The test system of test [3] is canine model, vagal stimulation. As to the kind of experiment: Canine arrhythmia model: ERP shortening and AF induced by vagal stimulation. The class given is in vivo. To be noted: 20 microgram/kg single iv, 10-15 minutes after administration. The procedure: Canine Arrhythmia Model. […] Bioorg. Med. Chem. 2007, 15, 2312-2321), was evaluated for its ability to decrease effective refractory period and atrial fibrillation induced by vagal stimulation. Open chest electrophysiological mapping was performed in a canine model as previously described (Arora, R. et al. Am. J. Physiol. Heart Circ. Physiol. 2008, 294, […]-[…]). […] At baseline, effective refractory periods (ERPs) were obtained at multiple sites on each plaque in the absence and presence of vagal stimulation (VS). AF inducibility was also assessed under each of these conditions i.e. with and without VS. After baseline measurements had been made, methoctramine tetrahydrochloride hydrate (20 microgram/kg), dissolved in normal saline, was administered via a single iv injection. 10-15 minutes after methoctramine administration, ERPs and AF inducibility were reassessed in the absence and presence of VS.

Test [4] deals with canines subjected to heart failure (HF). As to the kind of experiment: Vagal stimulation induced ERP shortening in canine heart failure model (rapid ventricular pacing). As to conditions: left atrium, in presence of AChE inhibitor, without it 10±4. The class given is in vivo. The procedure:
Effective Refractory Periods. Effective refractory periods (ERPs) were obtained from 5 distributed sites from the PV, 6 sites from the PLA, and 4 sites from the LAA during each autonomic intervention. For each ERP, the pacing protocol consisted of a drive train (S1) of eight beats with a cycle length of 400 ms followed by an extrastimulus (S2). The S2 was decremented by 10 ms until loss of capture. […] Pacing was performed at an output current twice the threshold required for consistent capture of the tissue. The mean ERP was used as the representative ERP for each of the three sites as well as the entire left atrium.
Canines were subjected to heart failure (HF) by rapid ventricular pacing (240/min for 3 weeks). Vagal stimulation induced ERP shortening (VS-ΔERP)(ms) was assessed in the test canines as well as controls at multiple sites in the LA. VS-ΔERP was reassessed in the presence of an acetylcholineesterase (AChE) inhibitor (physostigmine). Explanted LA were subjected to 1) ELISA for acetylcholinesterase (AChE) activity, 2) AChE immunostaining and 3) radioactive M2 receptor binding assay.

Take `CC(C)N(CC[C@H](c1ccccc1)c1cc(CO)ccc1O)C(C)C`: the “selectivity for M2 versus M3” value in test [1] was 2 fold.
In the case of `Cc1cccc(C(=O)N2CCC(N3CCC(Cc4ccc(S(=O)(=O)c5cccc(Cl)c5)cc4)CC3)CC2)c1N` [Sch 211803], in test [2], the “selectivity for M2 versus M1” value is recorded as 734 fold. Moreover, the “selectivity for M2 versus M3” value in test [1] was 786 fold.
With `COc1ccncc1CN1CCC(N(CCCCCCCN2CC[C@@H](C(C(N)=O)(c3ccccc3)c3ccccc3)C2)C(C)C)CC1` [TD-6301], the “selectivity for M2 versus M1” value in test [2] is listed as 31 fold. In addition, the “selectivity for M2 versus M3” value in test [1] was 36 fold.
Turning to `COc1ccccc1CNCCCCCCNCCCCCCCCNCCCCCCNCc1ccccc1OC` [methoctramine], in test [3], the “Vagal induced AF” value is “markedly decreased”. Further, the “Vagal induced ERP shortening” value in test [3] (baseline 40 ms, p<0.01) amounted to 10 ms. For the same compound, in test [2], the “selectivity for M2 versus M1” value is 35 fold. Besides, the “selectivity for M2 versus M3” value in test [1] is 219 fold.
Turning to `CNC(=O)Oc1ccc2c(c1)[C@]1(C)CCN(C)[C@@H]1N2C` [physostigmine], in test [4], the “Vagal stimulation induced ERP shortening (VS-ΔERP)” value is 28 ± 4 ms.
For `Cc1ccc(O)c([C@H](CCN(C(C)C)C(C)C)c2ccccc2)c1` [tolterodine], in test [1], the “selectivity for M2 versus M3” value is on record as 1.7 fold.
